{"source": "patent US20200000825A1", "about": "“METHODS AND COMPOSITIONS FOR TREATING AND PREVENTING VIRAL INFECTIONS” (ENTERIN LABORATORIES, INC., priority 2009, published 2020)", "key": {"[1]": {"test_system": "Human umbilical endothelial cells", "assay": "Kinetics of uptake of 3H-labelled aminosterol into endothelial cells", "details": "for Uptake into endothelial cells: 1 μg/ml 3H-aminosterol"}, "[2]": {"molecular_target": "T1, Human Oct 2 (Homo sapiens, UniProt O15244)", "T1 sequence (O15244 1-555)": "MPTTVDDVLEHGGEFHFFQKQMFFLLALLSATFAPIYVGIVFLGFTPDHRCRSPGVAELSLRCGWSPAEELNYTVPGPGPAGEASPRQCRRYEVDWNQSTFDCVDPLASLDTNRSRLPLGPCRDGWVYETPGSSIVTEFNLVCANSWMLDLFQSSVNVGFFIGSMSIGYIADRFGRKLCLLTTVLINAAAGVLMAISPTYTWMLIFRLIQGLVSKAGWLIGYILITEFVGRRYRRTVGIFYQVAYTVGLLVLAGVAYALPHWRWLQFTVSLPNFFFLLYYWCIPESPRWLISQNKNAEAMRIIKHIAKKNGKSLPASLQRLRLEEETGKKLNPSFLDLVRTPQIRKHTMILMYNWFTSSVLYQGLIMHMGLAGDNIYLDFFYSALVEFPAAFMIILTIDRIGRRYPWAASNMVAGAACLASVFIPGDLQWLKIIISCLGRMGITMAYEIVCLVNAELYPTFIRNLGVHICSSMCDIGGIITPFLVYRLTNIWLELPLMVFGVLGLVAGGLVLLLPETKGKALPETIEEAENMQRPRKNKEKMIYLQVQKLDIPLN", "assay": "MPP uptake inhibition (transport competition) assay in CHO cells over-expressing a human Oct transporter", "format": "cell-based", "protocol": "(§1) This example determines whether squalamine is a substrate for the organic cation transporter (Oct). This determination employed a standard transport competition assay, described in the literature (Lips, Volk et al. 2005).\n(§2) Chinese hamster ovary cells, previously engineered to over-express a specific human Oct transporter were used in the assay. In this example, the effect of a specific concentration of an amino sterol is determined on the intracellular uptake of radiolabelled 1-methyl-4-phenylpyridine (MPP) (at 0.01 μM), measured after a 1-second exposure. […] IC50 refers to the concentration of squalamine or 1436 required to inhibit MPP uptake by 50%. Table 1 below describes the affinity of squalamine and Amino sterol 1436 for human organic cation transporters (Human Oct 1, Human Oct 2, and Human Oct 3) based upon the MPP uptake inhibition assay."}, "[3]": {"molecular_target": "T2, Human Oct 1 (Homo sapiens, UniProt O15245)", "T2 sequence (O15245 1-554)": "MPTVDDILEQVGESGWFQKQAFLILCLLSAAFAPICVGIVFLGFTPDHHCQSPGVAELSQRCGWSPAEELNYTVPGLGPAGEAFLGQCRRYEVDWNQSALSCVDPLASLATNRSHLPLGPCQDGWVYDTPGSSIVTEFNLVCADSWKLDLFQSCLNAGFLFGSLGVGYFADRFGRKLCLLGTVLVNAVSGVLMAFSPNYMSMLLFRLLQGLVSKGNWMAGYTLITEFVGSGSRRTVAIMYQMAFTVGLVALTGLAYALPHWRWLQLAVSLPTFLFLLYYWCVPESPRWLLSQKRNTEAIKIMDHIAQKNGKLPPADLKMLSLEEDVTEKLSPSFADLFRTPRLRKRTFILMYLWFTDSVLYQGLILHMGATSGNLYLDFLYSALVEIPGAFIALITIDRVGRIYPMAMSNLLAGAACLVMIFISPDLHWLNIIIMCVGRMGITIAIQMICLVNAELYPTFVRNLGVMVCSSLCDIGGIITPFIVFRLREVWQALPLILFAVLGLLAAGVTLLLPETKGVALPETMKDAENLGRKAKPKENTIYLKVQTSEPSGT", "assay": "MPP uptake inhibition (transport competition) assay in CHO cells over-expressing a human Oct transporter", "format": "cell-based", "protocol": "as §1, §2"}, "[4]": {"molecular_target": "T3, Human Oct 3 (Homo sapiens, UniProt O75751)", "T3 sequence (O75751 1-556)": "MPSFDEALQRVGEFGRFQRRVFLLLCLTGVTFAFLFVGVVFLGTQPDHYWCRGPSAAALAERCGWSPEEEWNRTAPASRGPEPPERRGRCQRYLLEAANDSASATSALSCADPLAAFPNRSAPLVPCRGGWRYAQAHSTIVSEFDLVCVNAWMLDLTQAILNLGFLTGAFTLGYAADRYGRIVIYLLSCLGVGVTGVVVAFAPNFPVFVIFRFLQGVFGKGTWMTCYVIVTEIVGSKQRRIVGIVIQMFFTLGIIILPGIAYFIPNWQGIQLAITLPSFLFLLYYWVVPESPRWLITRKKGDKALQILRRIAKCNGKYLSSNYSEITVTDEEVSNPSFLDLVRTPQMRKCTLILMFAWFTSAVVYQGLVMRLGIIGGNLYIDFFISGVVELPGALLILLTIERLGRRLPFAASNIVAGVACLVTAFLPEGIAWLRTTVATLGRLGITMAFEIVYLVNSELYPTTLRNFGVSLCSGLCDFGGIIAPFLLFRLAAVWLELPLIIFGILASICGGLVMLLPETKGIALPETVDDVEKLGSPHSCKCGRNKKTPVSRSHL", "assay": "MPP uptake inhibition (transport competition) assay in CHO cells over-expressing a human Oct transporter", "format": "cell-based", "details": "100 μM aminosterol, radiolabelled MPP 0.01 μM, 1-second exposure", "protocol": "as §1, §2"}, "[5]": {"test_system": "human immunodeficiency virus (HIV)"}, "[6]": {"test_system": "Yellow Fever", "format": "in vivo, Syrian hamsters"}, "[7]": {"test_system": "Eastern Equine Encephalitis Virus", "format": "in vivo, hamsters (Syrian golden)", "details": "10 mg/kg/day s.c."}, "[8]": {"test_system": "Eastern Equine Encephalitis Virus", "format": "in vivo"}, "[9]": {"details": "cited from earlier work"}, "[10]": {"details": "cited from earlier work", "remark": "listed apart in the source"}, "[11]": {"details": "100 μM aminosterol, radiolabelled MPP 0.01 μM, 1-second exposure"}, "[12]": {"details": "read-out: IC50 (concentration required to inhibit MPP uptake by 50%)"}, "[13]": {"details": "500 mg/m(2)/day, 5-day continuous i.v. infusion"}}, "note": "Read-outs that look alike come from different tables or passages of the source."}
{"compound": "CC(C)[C@@H](CC[C@@H](C)[C@H]1CC[C@H]2[C@@H]3[C@H](O)C[C@H]4C[C@@H](NCCCNCCCCN)CC[C@]4(C)[C@H]3CC[C@]12C)OS(=O)(=O)O", "note": "[Squalamine, squalamine]", "values": [{"measurement": "Uptake into endothelial cells", "setting": "[1]; 5 min", "result": "250 Molecules/cell (×10^−6)"}, {"measurement": "Uptake into endothelial cells", "setting": "[1]; 30 min", "result": "400 Molecules/cell (×10^−6)"}, {"measurement": "Uptake into endothelial cells", "setting": "[1]; 60 min", "result": "500 Molecules/cell (×10^−6)"}, {"measurement": "Uptake into endothelial cells", "setting": "[1]; 120 min", "result": "500 Molecules/cell (×10^−6)"}, {"measurement": "Uptake into endothelial cells", "setting": "[1]; 180 min", "result": "600 Molecules/cell (×10^−6)"}, {"measurement": "Entry into the HUVEC relative to Aminosterol 1436", "setting": "[1]; squalamine versus Aminosterol 1436", "result": "over 2 orders of magnitude"}, {"measurement": "% Inhibition of MPP uptake caused by 100 μM", "setting": "[2]; [11]", "result": 40, "unit": "%"}, {"measurement": "IC50", "setting": "[2]; [12]", "result": 50, "unit": "µM"}, {"measurement": "% Inhibition of MPP uptake caused by 100 μM", "setting": "[3]; [11]", "result": 25, "unit": "%"}, {"measurement": "IC50", "setting": "[3]; [12]", "result": 34, "unit": "µM"}, {"measurement": "% Inhibition of MPP uptake caused by 100 μM", "setting": "[4]", "result": 60, "unit": "%"}, {"measurement": "Inhibition of HIV infection", "setting": "[5]", "result": "about 50%"}, {"measurement": "Toxicity towards the HeLa cells", "setting": "[5]; 30 μg/ml", "result": "no evidence of toxicity"}, {"measurement": "Animals cured (survival through day 21)", "setting": "[6]; squalamine 15 mg/kg/day s.c. from 1 dpi to 8 dpi", "result": 60, "unit": "%"}, {"measurement": "Animals cured (survival through day 21)", "setting": "[6]; squalamine 30 mg/kg/day s.c. from 1 dpi to 8 dpi", "result": 60, "unit": "%"}, {"measurement": "Animals cured (survival through day 21)", "setting": "[6]; squalamine 30 mg/kg/day s.c. from 2 dpi to 9 dpi", "result": 40, "unit": "%"}, {"measurement": "Hamsters still alive at the end of treatment", "setting": "[7]; -24 h to 6 days after infection", "result": "6/10"}, {"measurement": "Plasma concentration of virus, lower than vehicle", "setting": "[7]; first 3 days post infection", "result": "about 100 fold"}, {"measurement": "Efficacy in mice", "setting": "[8]", "result": "ineffective"}, {"measurement": "Mean clearance", "setting": "[9]; [13]", "result": "2.67 liters/h/m(2)"}, {"measurement": "Mean half-life", "setting": "[9]; [13]", "result": 9.46, "unit": "h"}, {"measurement": "Mean volume of distribution", "setting": "[9]; [13]", "result": "36.84 liters/m(2)"}, {"measurement": "Steady-state concentrations", "setting": "[9]; [13]", "result": 20.08, "unit": "micro g/ml"}, {"measurement": "Patients with dose-limiting grade 4 hyperbilirubinemia and grade 3 neurosensory changes", "setting": "[9]; 500 mg/m(2)/day", "result": "one of seven"}, {"measurement": "Tolerability", "setting": "[9]; 500 mg/m(2)/day", "result": "well tolerated"}, {"measurement": "Patients who developed grade 4 hyperbilirubinemia", "setting": "[9]; 700 mg/m(2)/day", "result": "two of three"}, {"measurement": "Dose dependence of pharmacokinetics", "setting": "[9]; 6 to 700 mg/m(2)/day", "result": "dose-proportional"}, {"measurement": "Patients with dose-limiting toxicity (grade 3/4 arthralgia, myalgia, neutropenia)", "setting": "[10]; 400 mg/m(2)/day with paclitaxel and carboplatin", "result": "two of three"}, {"measurement": "Tolerability of the combination", "setting": "[10]; continuous daily for 5 days, with paclitaxel and carboplatin on day 1", "result": "well tolerated"}]}
